Patent publication US20100120798A1, “SUBSTITUTED PIPERIDINES CONTAINING A HETEROARYLAMIDE OR HETEROARYLPHENYL MOIETY” (ASTEX THERAPEUTICS LIMITED, priority 2006, published 2010)

Tests used:
[1] = In vitro MDA-MB-468 human breast adenocarcinoma GSK-3 phosphorylation assay; format: cell-based; details: mean IC50, MDA-MB-468 cells, 2 hours with compound, phospho-GSK-3β
Source text: This assay determines the ability of test compounds to inhibit phosphorylation of Serine-9 residue in Glycogen Synthase Kinase-3beta (GSK-3β) as a surrogate marker of cellular PKB (Akt) activity, as assessed using Acumen Explorer Fluorescent Plate-Reader technology. A MDA-MB-468 human breast adenocarcinoma cell line (LGC Promochem, Teddington, Middlesex, UK, Catalogue No. HTB-132) was routinely maintained in Dulbecco's modified Eagle's growth medium (DMEM; Invitrogen Limited, Paisley, UK Catalogue No. 11966-025) containing 10% heat-inactivated foetal calf serum (FCS; Sigma, Poole, Dorset, UK, Catalogue No. F0392) and 1% L-glutamine (Gibco, Catalogue No. 25030-024) at 37° C. with 5% CO2 up to a confluency of 70-90%.
For the phosphorylation assay, the cells were detached from the culture flask using Trypsin-EDTA (Invitrogen Limited, Catalogue No. 25300-062) and seeded into the wells of a black transparent-bottom Corning Costar Polystyrene 96 well plate (Fisher Scientific UK, Loughborough, Leicestershire, UK; Catalogue No. 3904 and DPS-130-020K) at a density of 5000 cells per well in 100 μl of complete growth media. The cells were incubated overnight at 37° C. with 5% CO2 to allow them to adhere.
On day 2, the cells were treated with test compounds and incubated for 2 hours at 37° C. with 5% CO2. Test compounds were prepared as 10 mM stock solutions in DMSO and dosed directly to required concentration into test wells using non-contact (acoustic dispensing of multiple 2.5 nl droplets directly into assay wells) ECHO dosing technology (Labcyte Inc. Sunnyvale, Calif., USA). Each plate contained control wells without test compound.
20 μl of fixing buffer (Phosphate Buffered Saline (PBS) containing 10% formaldehyde; Sigma; Catalogue No. F1635) was then added to each well to give a final well concentration 1.6%. Plates were then incubated for 30 minutes at room temperature prior to the fixative being removed. Each well was washed once with 250 μl of PBS and then 50 μl PBS added to each well. PBS was then aspirated and cells permeabilised and blocked by incubating each well with 50 μl of permeabilisation/blocking buffer (PBS containing 0.5% Tween 20 (Sigma; Catalogue No. P5927) and 5% Marvel Milk Powder (Andrews Pharmacy Ltd, Macclesfield, Cheshire, UK; Catalogue No. APC100199)) for 1 hour at room temperature prior to staining.
Following removal of Perm/Block buffer, 50 μl of primary anti-phospho-GSK-3β antibody (Cell Signalling Technology (New England Biolabs (Uk) Ltd.), Hitchin, Hertfordshire, UK; Catalogue No. 9336 diluted 1:400 in Blocking buffer (PBS containing 5% Marvel and 0.05% Tween/Polysorbate 20) was added to each well and incubated overnight at 4° C.
Each well was washed three times in 250 μl of wash buffer (PBS containing 0.05% polysorbate 20), and cells incubated for 1 hour at room temperature with 50 μl of secondary fluorescently-labelled anti-rabbit Alexa Fluor 488 antibody (Molecular Probes, Invitrogen Limited, Catalogue No. A11008) diluted 1:750 in blocking buffer. Plates were washed three times in 250 μl of wash buffer and stored containing 50 μl of PBS at 4° C. until required.
Plates were analysed using an Acumen Explorer Plate-reader to quantify level of fluorescent signal that represents quantity of phosphorylated-GSK-3β.
IC50 calculation—IC50 is the concentration of compound required to give 50% effect over the range of activity affected by the compound, between maximum (no compound) and minimum (excess level of compound) response control data. IC50 values were determined by fitting background corrected, dose response assay data to a 4 parameter logistic curve fit equation model with the minimum response set to zero. This was done using an in-house developed algorithm within the Origin graphing software package (OriginLab Corporation, Northampton, Mass., USA). […]

hERG K+ ion channel = hERG K+ ion channel (Homo sapiens, UniProt Q12809); test: hERG activity; format: cell-based; details: assay of Bridgland-Taylor et al.; read-out: IC50 against hERG K+ ion channel
hERG K+ ion channel, sequence (Q12809 whole entry): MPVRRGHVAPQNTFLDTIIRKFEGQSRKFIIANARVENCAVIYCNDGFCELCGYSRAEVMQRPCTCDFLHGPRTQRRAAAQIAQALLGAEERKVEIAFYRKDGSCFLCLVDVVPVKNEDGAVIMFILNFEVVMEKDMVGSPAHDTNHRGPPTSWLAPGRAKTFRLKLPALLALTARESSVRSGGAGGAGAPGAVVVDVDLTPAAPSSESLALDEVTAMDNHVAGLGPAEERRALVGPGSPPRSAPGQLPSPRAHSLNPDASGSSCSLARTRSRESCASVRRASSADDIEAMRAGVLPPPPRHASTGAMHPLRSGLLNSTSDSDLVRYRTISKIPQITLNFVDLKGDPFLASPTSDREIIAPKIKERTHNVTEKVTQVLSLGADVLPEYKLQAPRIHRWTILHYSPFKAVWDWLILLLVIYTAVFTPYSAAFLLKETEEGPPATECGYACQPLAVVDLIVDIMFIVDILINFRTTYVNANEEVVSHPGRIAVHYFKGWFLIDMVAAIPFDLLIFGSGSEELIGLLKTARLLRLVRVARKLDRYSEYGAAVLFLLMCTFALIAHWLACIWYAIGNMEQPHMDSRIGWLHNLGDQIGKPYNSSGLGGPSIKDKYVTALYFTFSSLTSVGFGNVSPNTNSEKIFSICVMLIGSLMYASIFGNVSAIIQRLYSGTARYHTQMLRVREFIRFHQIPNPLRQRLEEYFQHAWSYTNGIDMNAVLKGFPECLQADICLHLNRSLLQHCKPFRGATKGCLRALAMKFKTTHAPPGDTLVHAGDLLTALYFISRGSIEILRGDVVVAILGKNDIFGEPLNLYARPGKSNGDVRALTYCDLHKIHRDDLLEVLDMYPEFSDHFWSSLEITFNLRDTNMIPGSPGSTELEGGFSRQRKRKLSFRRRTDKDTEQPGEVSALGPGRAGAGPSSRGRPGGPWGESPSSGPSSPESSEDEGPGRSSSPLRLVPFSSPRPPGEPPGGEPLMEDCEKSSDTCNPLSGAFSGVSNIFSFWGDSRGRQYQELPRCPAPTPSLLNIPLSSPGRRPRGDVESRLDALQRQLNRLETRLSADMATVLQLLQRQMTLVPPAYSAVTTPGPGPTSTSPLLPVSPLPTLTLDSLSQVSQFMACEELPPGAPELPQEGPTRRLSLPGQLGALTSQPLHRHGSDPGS
Source text: The activity of compounds of the invention against the hERG K^+ ion channel can be determined using the assay described in the article by M. H. Bridgland-Taylor et al., Journal of Pharmcaological and Toxicological Methods, 54 (2006), 189-199.

Compound	IC50 [1]	IC50 (hERG K+ ion channel)
NCC1(C(=O)NCc2ccc(Cl)nc2)CCN(c2ncnc3[nH]ccc23)CC1 [Example 1, 4-Aminomethyl-1-(7H-pyrrolo[2,3-d]pyrimidin-4-yl)-piperidine-4-carboxylic acid (6-chloro-pyridin-3-ylmethyl)-amide]	59 nM	> 32000 nM
NC1(C(=O)NCc2ccc(Cl)nc2)CCN(c2ncnc3[nH]ccc23)CC1 [Example 4, 4-Amino-1-(7H-pyrrolo[2,3-d]pyrimidin-4-yl)-piperidine-4-carboxylic acid (6-chloro-pyridin-3-ylmethyl)amide]	880 nM	> 32000 nM
Cn1cc(-c2cccc(C3(CN)CCN(c4ncnc5[nH]cnc45)CC3)c2)cn1 [Example 6, C-[4-[3-(1-Methyl-1H-pyrazol-4-yl)-phenyl]-1-(9H-purin-6-yl)-piperidin-4-yl]-methylamine]	31 nM	> 32000 nM
